Test: mn = molality of the nth substance listed, in mol/kg
Conditions: 101 kPa, Liquid; for viscosity: Capillary tube (Ostwald / Ubbelohde) method; for speed of sound: Linear variable-path acoustic interferometer; for mass density: Pycnometric method

CC(=O)[O-].CC(=O)[O-].[Mg+2] [magnesium acetate] + O
Conditions | mass density [kg/m3] | speed of sound [m/s] | viscosity [mPa·s]
293.15 K, m1 = 0.0414 | – | 1487.6 | –
293.15 K, m1 = 0.0831 | – | 1497.5 | –
293.15 K, m1 = 0.1671 | – | 1508.3 | –
293.15 K, m1 = 0.4247 | – | 1545.4 | –
293.15 K, m1 = 0.646 | – | 1577.8 | –
293.15 K, m1 = 0.8751 | – | 1609.8 | –
293.15 K, m1 = 1.106 | – | 1639.8 | –
293.15 K, m1 = 1.354 | – | 1665.7 | –
293.15 K, m1 = 1.608 | – | 1697.3 | –
293.15 K, m1 = 1.866 | – | 1725.6 | –
293.15 K, m1 = 2.134 | – | 1754.5 | –
293.15 K, m1 = 2.411 | – | 1782.6 | –
293.15 K, m1 = 2.622 | – | 1798.8 | –
293.15 K, m1 = 3.043 | – | 1832.8 | 14.98
293.15 K, m1 = 3.437 | – | 1866.8 | 24.4
293.15 K, m1 = 3.819 | – | 1884.3 | –
293.15 K, m1 = 4.001 | – | – | 41.34
293.15 K, m1 = 4.547 | – | 1917.4 | –
293.15 K, m1 = 4.563 | – | – | 75.04
293.15 K, m1 = 4.929 | – | – | 97.76
293.15 K, m1 = 5.165 | – | 1940.8 | –
293.15 K, m1 = 5.732 | – | 1954.7 | –
294.9 K, m1 = 2.411 | 1149 | – | –
295.15 K, m1 = 0.4247 | 1029.4 | – | –
295.15 K, m1 = 0.8751 | 1059.6 | – | –
295.4 K, m1 = 0.1671 | 1010.2 | – | –
296 K, m1 = 1.354 | 1089.6 | – | –
296.1 K, m1 = 1.866 | 1118.6 | – | –
297.95 K, m1 = 2.411 | 1147.7 | – | –
298.05 K, m1 = 1.106 | 1074.8 | – | –
298.15 K, m1 = 0.0414 | – | 1501.7 | 0.9322
298.15 K, m1 = 0.0831 | – | 1510.4 | 0.964
298.15 K, m1 = 0.1671 | – | 1520.6 | 1.034
298.15 K, m1 = 0.4247 | – | 1556.9 | 1.286
298.15 K, m1 = 0.646 | – | 1587.3 | 1.566
298.15 K, m1 = 0.8751 | – | 1616.2 | 1.873
298.15 K, m1 = 1.106 | – | 1645.9 | 2.31
298.15 K, m1 = 1.354 | – | 1671.1 | 2.821
298.15 K, m1 = 1.608 | – | 1700.3 | 2.821
298.15 K, m1 = 1.866 | – | 1727.7 | 4.32
298.15 K, m1 = 2.134 | – | 1754.6 | 5.472
298.15 K, m1 = 2.411 | – | 1781.9 | 7.183
298.15 K, m1 = 2.622 | – | 1797.3 | 8.354
298.15 K, m1 = 3.043 | – | 1829.5 | 12.02
298.15 K, m1 = 3.437 | – | 1861.2 | 19.05
298.15 K, m1 = 3.819 | – | 1878 | –
298.15 K, m1 = 4.001 | – | – | 31.38
298.15 K, m1 = 4.547 | – | 1908 | –
298.15 K, m1 = 4.563 | – | – | 55
298.15 K, m1 = 4.929 | – | – | 70.36
298.15 K, m1 = 5.165 | – | 1929.7 | –
298.15 K, m1 = 5.41 | – | – | 141.2
298.15 K, m1 = 5.732 | – | 1940.2 | –
298.3 K, m1 = 3.043 | 1175 | – | –
298.7 K, m1 = 2.134 | 1132.2 | – | –
298.75 K, m1 = 0.0831 | 1003.1 | – | –
298.8 K, m1 = 3.437 | 1195.5 | – | –
298.85 K, m1 = 0.646 | 1044 | – | –
298.95 K, m1 = 0.8751 | 1058.5 | – | –
299.15 K, m1 = 0.4247 | 1028.4 | – | –
299.2 K, m1 = 2.622 | 1155.8 | – | –
299.3 K, m1 = 1.866 | 1117.5 | – | –
299.55 K, m1 = 5.732 | 1267.4 | – | –
299.6 K, m1 = 0.1671 | 1009.1 | – | –
299.65 K, m1 = 1.354 | 1088.4 | – | –
300.6 K, m1 = 1.608 | 1103.6 | – | –
300.85 K, m1 = 0.0414 | 999.3 | – | –
301 K, m1 = 2.411 | 1146.5 | – | –
301.05 K, m1 = 3.043 | 1173.8 | – | –
301.35 K, m1 = 1.327 | 1086.4 | – | –
301.5 K, m1 = 3.437 | 1194.2 | – | –
301.55 K, m1 = 2.134 | 1131.1 | – | –
301.7 K, m1 = 1.106 | 1073.7 | – | –
301.75 K, m1 = 5.732 | 1266 | – | –
302.05 K, m1 = 2.622 | 1154.6 | – | –
302.05 K, m1 = 3.819 | 1205.9 | – | –
302.25 K, m1 = 0.646 | 1043 | – | –
302.4 K, m1 = 1.866 | 1116.3 | – | –
302.4 K, m1 = 5.165 | 1249.6 | – | –
302.5 K, m1 = 0.0831 | 1002 | – | –
302.55 K, m1 = 0.8751 | 1057.4 | – | –
302.7 K, m1 = 1.354 | 1087.4 | – | –
302.75 K, m1 = 0.4247 | 1027.2 | – | –
302.95 K, m1 = 4.547 | 1229.9 | – | –
303.15 K, m1 = 0.0414 | – | 1513.4 | 0.835
303.15 K, m1 = 0.0831 | – | 1521.5 | 0.8624
303.15 K, m1 = 0.1671 | – | 1532.2 | 0.9234
303.15 K, m1 = 0.4247 | – | 1567.4 | 1.141
303.15 K, m1 = 0.646 | – | 1595.7 | 1.383
303.15 K, m1 = 0.8751 | – | 1625.4 | 1.64
303.15 K, m1 = 1.106 | – | 1651.6 | 2.014
303.15 K, m1 = 1.354 | – | 1676.1 | 2.446
303.15 K, m1 = 1.608 | – | 1703 | 2.446
303.15 K, m1 = 1.866 | – | 1728.9 | 3.688
303.15 K, m1 = 2.134 | – | 1755.5 | 4.619
303.15 K, m1 = 2.411 | – | 1781.3 | 6.056
303.15 K, m1 = 2.622 | – | 1795.2 | 6.928
303.15 K, m1 = 3.043 | – | 1824.8 | 9.798
303.15 K, m1 = 3.437 | – | 1855.5 | 15.2
303.15 K, m1 = 3.819 | – | 1870.5 | –
303.15 K, m1 = 4.001 | – | – | 24.27
303.15 K, m1 = 4.547 | – | 1899.1 | –
303.15 K, m1 = 4.563 | – | – | 41.02
303.15 K, m1 = 4.929 | – | – | 51.77
303.15 K, m1 = 5.165 | – | 1919 | –
303.15 K, m1 = 5.41 | – | – | 99.4
303.15 K, m1 = 5.732 | – | 1926.8 | 135.8
303.3 K, m1 = 0.1671 | 1008 | – | –
303.65 K, m1 = 1.608 | 1102.5 | – | –
303.75 K, m1 = 2.411 | 1145.4 | – | –
303.75 K, m1 = 3.043 | 1172.5 | – | –
303.75 K, m1 = 5.732 | 1264.8 | – | –
303.9 K, m1 = 3.437 | 1193.1 | – | –
304.4 K, m1 = 3.819 | 1204.7 | – | –
304.45 K, m1 = 0.0414 | 998.24 | – | –
304.55 K, m1 = 2.134 | 1129.8 | – | –
304.6 K, m1 = 5.165 | 1248.3 | – | –
304.7 K, m1 = 1.327 | 1085.2 | – | –
304.8 K, m1 = 2.622 | 1153.3 | – | –
304.95 K, m1 = 1.106 | 1072.5 | – | –
305.35 K, m1 = 4.547 | 1228.6 | – | –
